Reference: patent publication US20230277630A1, “METHODS AND COMPOSITIONS FOR TREATING AMYOTROPHIC LATERAL SCLEROSIS” (Amylyx Pharmaceuticals, Inc., priority 2022, published 2023)
Where “and” joins values, the source holds several entries; their conditions need not be identical. Identical values can stand only once.

Legend:
P-gp and BCRP = P-gp and BCRP substrate assessment, bidirectional permeability in C2BBe1 cells; conditions: C2BBe1 cells, 10 μM probe; for recovery at 10 μM / Papp A→B at 10 µM / Papp B→A at 10 µM: human; for Papp A→B at 10 µM / Papp B→A at 10 µM: Caco-2, pH 7.4, probe digoxin (P-gp), cladribine (BCRP); for Papp A→B at 10 µM: AP-to-BL Papp; for Papp B→A at 10 µM: BL-to-AP Papp
Description: The P-gp and BCRP substrate assessment was conducted in C2BBe1 cell monolayers. […] LY was co-dosed with each dosing solution at a nominal concentration of 200 μM.
The cell culture medium was aspirated, and the cell monolayers were rinsed once with HBSSg_7.4. […] For receiver samples, aliquots (300 μL) were taken at pre-selected time points. […] For donor samples, aliquots (50 μL) were taken at pre-selected time points without replacement.

MATE1 = target: T1, MATE1 (Homo sapiens, UniProt Q96FL8); assay: MATE1 inhibitor (IC50) assessment, metformin uptake in transfected HEK cells
T1 sequence (Q96FL8 1-570): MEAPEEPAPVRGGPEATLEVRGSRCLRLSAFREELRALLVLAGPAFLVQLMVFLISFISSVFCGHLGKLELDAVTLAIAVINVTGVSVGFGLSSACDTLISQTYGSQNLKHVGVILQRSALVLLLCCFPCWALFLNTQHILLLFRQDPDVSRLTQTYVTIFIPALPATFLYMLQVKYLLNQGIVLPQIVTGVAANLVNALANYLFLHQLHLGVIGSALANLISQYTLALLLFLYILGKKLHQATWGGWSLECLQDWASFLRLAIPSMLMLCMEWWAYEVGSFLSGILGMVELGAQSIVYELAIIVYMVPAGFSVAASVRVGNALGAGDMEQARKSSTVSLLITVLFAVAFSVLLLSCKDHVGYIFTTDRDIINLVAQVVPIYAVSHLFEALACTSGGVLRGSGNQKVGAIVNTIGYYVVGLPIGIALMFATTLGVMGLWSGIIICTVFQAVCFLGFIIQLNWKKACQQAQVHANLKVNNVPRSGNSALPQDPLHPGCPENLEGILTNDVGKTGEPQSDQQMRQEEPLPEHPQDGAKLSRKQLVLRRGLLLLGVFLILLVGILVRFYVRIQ

MATE2K = MATE2K (Homo sapiens, UniProt Q86VL8); assay: MATE2K inhibitor (IC50) assessment, metformin uptake in transfected HEK cells
Sequence of MATE2K (Q86VL8 1-566 isoform Q86VL8-3): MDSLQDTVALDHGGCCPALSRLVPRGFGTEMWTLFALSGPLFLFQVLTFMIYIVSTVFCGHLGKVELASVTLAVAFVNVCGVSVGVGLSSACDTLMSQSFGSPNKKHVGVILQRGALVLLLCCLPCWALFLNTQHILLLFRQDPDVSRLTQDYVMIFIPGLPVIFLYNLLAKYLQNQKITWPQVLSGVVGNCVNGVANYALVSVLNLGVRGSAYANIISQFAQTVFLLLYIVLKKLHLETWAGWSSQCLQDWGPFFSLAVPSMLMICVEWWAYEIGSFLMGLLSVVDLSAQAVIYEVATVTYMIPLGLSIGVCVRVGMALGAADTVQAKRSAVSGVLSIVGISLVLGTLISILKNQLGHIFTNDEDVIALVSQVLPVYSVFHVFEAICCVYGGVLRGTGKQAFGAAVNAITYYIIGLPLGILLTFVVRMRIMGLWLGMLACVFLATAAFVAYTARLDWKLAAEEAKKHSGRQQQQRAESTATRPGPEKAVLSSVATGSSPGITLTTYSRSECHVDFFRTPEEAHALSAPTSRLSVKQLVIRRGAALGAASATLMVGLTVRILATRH

OCT2 = target: T2, OCT2 (Homo sapiens, UniProt O15244); assay: OCT2 inhibitor (IC50) assessment, MPP+ uptake in transfected HEK cells
T2 sequence (O15244 1-555): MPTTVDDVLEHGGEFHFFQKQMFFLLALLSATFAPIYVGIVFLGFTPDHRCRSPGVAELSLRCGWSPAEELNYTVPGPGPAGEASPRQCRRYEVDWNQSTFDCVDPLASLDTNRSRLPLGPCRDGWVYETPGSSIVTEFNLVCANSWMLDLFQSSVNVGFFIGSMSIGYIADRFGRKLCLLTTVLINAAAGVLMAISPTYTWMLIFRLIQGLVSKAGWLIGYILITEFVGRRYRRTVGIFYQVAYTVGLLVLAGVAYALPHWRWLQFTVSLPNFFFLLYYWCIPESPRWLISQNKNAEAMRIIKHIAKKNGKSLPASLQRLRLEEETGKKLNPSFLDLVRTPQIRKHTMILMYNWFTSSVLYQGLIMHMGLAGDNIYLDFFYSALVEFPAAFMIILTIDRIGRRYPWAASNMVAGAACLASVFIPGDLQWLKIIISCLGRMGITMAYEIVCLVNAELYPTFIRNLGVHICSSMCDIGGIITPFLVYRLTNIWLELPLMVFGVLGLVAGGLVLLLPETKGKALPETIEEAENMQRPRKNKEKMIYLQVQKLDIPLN

[1] = CYP reaction phenotyping: CYP control (negative control without CYP enzymes); conditions: 20 min, pH 7.4
Description: The reaction was initiated by the addition of NADPH, followed by incubation at 37° C.

[2] = batch used with Sol_1, Sol_3, and Sol_4, single replicates
[3] = batch used with Sol_2, single replicates
[4] = 50 μM Metformin alone, 10 min, HBSSg_8.5, replicates and Average
[5] = absence of TUDCA and PB or positive inhibitor
[6] = 50 μM Metformin alone, 10 min, HBSSg_8.5, replicates 1, 2 and Average
[7] = 5 μM MPP+ alone, 2 min, replicates 1, 2 and Average

Question: With `C[C@H]1O[C@@H](O[C@H]2[C@@H](O)C[C@H](O[C@H]3[C@@H](O)C[C@H](O[C@H]4CC[C@@]5(C)[C@H](CC[C@@H]6[C@@H]5C[C@@H](O)[C@]5(C)[C@@H](C7=CC(=O)OC7)CC[C@]65O)C4)O[C@@H]3C)O[C@@H]2C)C[C@H](O)[C@@H]1O` [digoxin] as the compound, how does the “AP-to-BL Papp” value (P-gp and BCRP; [2]) read?
Answer: 0.350 10^−6 cm/s and 0.234 10^−6 cm/s

Question: And the “AP-to-BL Recovery” value (P-gp and BCRP; [2])?
Answer: 95.3%

Question: And the “BL-to-AP Papp” value (P-gp and BCRP; [2])?
Answer: 14.6 10^−6 cm/s and 11.2 10^−6 cm/s

Question: What about the “BL-to-AP Recovery” value (P-gp and BCRP; [2]) of the same compound?
Answer: 94.9% and 83.1%

Question: What about the “AP-to-BL Papp” value (P-gp and BCRP; [3]) of the same compound?
Answer: 0.381 10^−6 cm/s and 0.298 10^−6 cm/s

Question: What about the “AP-to-BL Recovery” value (P-gp and BCRP; [3]) of the same compound?
Answer: 92.4%

Question: What about the “BL-to-AP Papp” value (P-gp and BCRP; [3]) of the same compound?
Answer: 12.1 10^−6 cm/s and 12.8 10^−6 cm/s

Question: What about the “BL-to-AP Recovery” value (P-gp and BCRP; [3]) of the same compound?
Answer: 96.7% and 90.2%

Question: What about the recovery at 10 μM (P-gp and BCRP; Caco-2, pH 7.4, AP-to-BL Recovery, batch used with Sol_1, Sol_3, and Sol_4, Average) of the same compound?
Answer: 89.5%

Question: And the recovery at 10 μM (P-gp and BCRP; Caco-2, pH 7.4, AP-to-BL Recovery, batch used with Sol_1, Sol_3, and Sol_4, single replicates)?
Answer: 90.9%

Question: What about the recovery at 10 μM (P-gp and BCRP; Caco-2, pH 7.4, AP-to-BL Recovery, batch used with Sol_2, Average) of the same compound?
Answer: 86.3%

Question: What about the recovery at 10 μM (P-gp and BCRP; Caco-2, pH 7.4, AP-to-BL Recovery, batch used with Sol_2, single replicates) of the same compound?
Answer: 77.9%

Question: And the recovery at 10 μM (P-gp and BCRP; Caco-2, pH 7.4, BL-to-AP Recovery, batch used with Sol_1, Sol_3, and Sol_4, Average)?
Answer: 87.4%

Question: And the recovery at 10 μM (P-gp and BCRP; Caco-2, pH 7.4, BL-to-AP Recovery, batch used with Sol_1, Sol_3, and Sol_4, single replicates)?
Answer: 84.1%

Question: What about the recovery at 10 μM (P-gp and BCRP; Caco-2, pH 7.4, BL-to-AP Recovery, batch used with Sol_2, Average) of the same compound?
Answer: 92.1%

Question: And the recovery at 10 μM (P-gp and BCRP; Caco-2, pH 7.4, BL-to-AP Recovery, batch used with Sol_2, single replicates)?
Answer: 89.5%

Question: And the Papp A→B at 10 µM (P-gp and BCRP; [2])?
Answer: 0.326 ×10⁻⁶ cm/s

Question: What about the Papp A→B at 10 µM (P-gp and BCRP; batch used with Sol_2, Average) of the same compound?
Answer: 0.334 ×10⁻⁶ cm/s

Question: And the Papp A→B at 10 µM (P-gp and BCRP; [3])?
Answer: 0.323 ×10⁻⁶ cm/s

Question: And the Papp B→A at 10 µM (P-gp and BCRP; batch used with Sol_1, Sol_3, and Sol_4, Average)?
Answer: 12.6 ×10⁻⁶ cm/s

Question: And the Papp B→A at 10 µM (P-gp and BCRP; [2])?
Answer: 12.1 ×10⁻⁶ cm/s

Question: And the Papp B→A at 10 µM (P-gp and BCRP; batch used with Sol_2, Average)?
Answer: 12.8 ×10⁻⁶ cm/s

Question: And the Papp B→A at 10 µM (P-gp and BCRP; [3])?
Answer: 13.5 ×10⁻⁶ cm/s

Question: For `CN(C)C(=N)N=C(N)N` [metformin], which “Net Influx Rate of Metformin (MATE1)” value (MATE1; 50 μM Metformin alone) is on record?
Answer: 572 pmol/mg protein/minute

Question: What about the “influx rate ratio of metformin (MATE1 over vector control)” value (MATE1; 50 μM Metformin alone) of the same compound?
Answer: 43.4

Question: And the “Influx Rate of Metformin, MATE1-HEK Cells” value (MATE1; [4])?
Answer: 515 pmol/mg protein/minute and 656 pmol/mg protein/minute

Question: And the “Influx Rate of Metformin, Vector Control Cells” value (MATE1; [4])?
Answer: 15.6 pmol/mg protein/minute and 11.3 pmol/mg protein/minute

Question: What about the “influx rate ratio of metformin (MATE1 over vector control)” value (MATE1; [5]) of the same compound?
Answer: 43.4

Question: What about the “Net Influx Rate of Metformin (MATE2K)” value (MATE2K; 50 μM Metformin alone) of the same compound?
Answer: 36.1 pmol/mg protein/minute

Question: And the “influx rate ratio of metformin (MATE2K over vector control)” value (MATE2K; 50 μM Metformin alone)?
Answer: 2.70

Question: What about the “Influx Rate of Metformin, MATE2K HEK Cells” value (MATE2K; [6]) of the same compound?
Answer: 54.5 pmol/mg protein/minute and 60.2 pmol/mg protein/minute

Question: What about the “Influx Rate of Metformin, Vector Control Cells” value (MATE2K; [6]) of the same compound?
Answer: 19.6 pmol/mg protein/minute and 22.8 pmol/mg protein/minute

Question: What about the “influx rate ratio of metformin (MATE2K over vector control)” value (MATE2K; [5]) of the same compound?
Answer: 2.70

Question: For `C[n+]1ccc(-c2ccccc2)cc1` [MPP+, 1-methyl-4-phenylpyridinium], which “Net Influx Rate of MPP+ (OCT2)” value (OCT2; 5 μM MPP+ alone) is on record?
Answer: 847 pmol/mg protein/minute

Question: And the “influx rate ratio of MPP+ (OCT2 over vector control)” value (OCT2; 5 μM MPP+ alone, 2 min)?
Answer: 48.9

Question: And the “Influx Rate of MPP+, OCT2-HEK Cells” value (OCT2; [7])?
Answer: 896 pmol/mg protein/minute and 833 pmol/mg protein/minute

Question: And the “Influx Rate of MPP+, Vector Control Cells” value (OCT2; [7])?
Answer: 19.0 pmol/mg protein/minute and 16.3 pmol/mg protein/minute

Question: And the “influx rate ratio of MPP+ (OCT2 over vector control)” value (OCT2; absence of TUDCA and PB or imipramine)?
Answer: 48.9

Question: Which results are given for `CN/C(=N/CCSCc1nc[nH]c1C)NC#N` [cimetidine]?
Answer: Percentage Inhibition of MATE1 (MATE1; 50 μM Metformin + 100 μM Cimetidine): 99.2%; inhibition of metformin uptake in MATE1-transfected cells (MATE1; known inhibitor): 99.2%

Question: For `CCN(CC)Cc1cc(Nc2ccnc3cc(Cl)ccc23)ccc1O` [Amodiaquine], which “Measured Metabolite” value [1] is on record?
Answer: 0 µM
